Measured values published in US8114903B2, “Cytokine modulators using cyclic glycerides of essential polyunsaturated fatty acids” (BTG International Limited, priority 2005, dated 2012).
Like-named read-outs stand apart in the source and are kept apart here.

Experiments:
TGF-β1 [1] = conditions: monoglyceride 50 μg
Description: Solublization of Sn-2 monoglyceride was performed using ethyl alcohol or DMSO for in vitro work on human peripheral blood mononuclear cells (PBMCs). […] SJL mice were fed sn-2 GLA of Example 1 at three doses (50, 125 and 250 μl) for seven days by gavage. […] After seven days animals were killed and the brain, liver and spleen were removed the liver and brain frozen at −70° C. and mononuclear cells were isolated from spleens by sieving and density centrifugation on Lymphoprep (Sigma Chemical Co) and cultured at 37° C. in 5% CO2 atmosphere in 5 ml culture tubesat a cell density of 1×10^6 cells/ml in RPMI 1640 medium in 5% foetal calf serum (FCS). Cells were cultured with and without 1 μg/ml or […] concanavalin A (Con A) for approximately 20 hours and the supernatants removed and stored at −70° C. until required. Mouse […] was measured in supernatants using a commercially available ELISA (Promega, Madison Wis.).

[2] = mouse, in vivo
TGF-β1 [3] = assay: TGF-β1 production by spleen mononuclear cells of C57/BL mice dosed orally with 2 GLA MG formal (ELISA); assay type: in vivo; conditions: for Spleen mononuclear cell TGFβ production: Con A and unstimulated data combined, n=9/group, mean ± SEM
Description: C57/BL mice were dosed orally with 2 GLA MG formal at two doses of 50 and 150 ul for eight days. The compound was supplied in 8 separate tubes to be stored at 4° C. prior to dosing but warmed to 25° C. before use.
Data were therefore combined for the purposes of statistical analysis (n=9/group). Data were analysed using Graphpad Instat.

[4] = Storage stability in air at room temperature; assay type: physicochemical; conditions: similar to GLA, best stored long term in a cool place under nitrogen
Description: For the purposes of this exemplification, the synthesis of this ester was carried out by acylation of the commercially available glycerol formal mixture using γ-linolenoyl chloride. By this method a mixture of two products is formed and these were separable by column chromatography. The undesired by-product is eluted off the column first; further elution gives the desired acetal-ester.

| Regurgitation after gavage [2] | SMILES | Change % of TGF-β1 production vs control (TGF-β1 [1]; Con A 0 μg/ml) [%] | TGF-β1 production from spleen PBMCs, unstimulated (TGF-β1 [1]; Con A 0 μg/ml, fed by gavage for seven days, cells cultured about 20 hours) [pg/mL] | Change % of TGF-β1 production vs control (TGF-β1 [1]; Con A 1 μg/ml) [%] | TGF-β1 production from spleen PBMCs, stimulated (Con A) (TGF-β1 [1]; Con A 1 μg/ml, fed by gavage for seven days, cells cultured about 20 hours) [pg/mL] | Change % of TGF-β1 production vs control (TGF-β1 [1]; Con A 25 μg/ml) [%] | TGF-β1 production from spleen PBMCs, stimulated (Con A) (TGF-β1 [1]; Con A 25 μg/ml, fed by gavage for seven days, cells cultured about 20 hours) [pg/mL] | Spleen mononuclear cell TGFβ production (TGF-β1 [3]; 50 ul orally for eight days) [pg/mL] | Increase of spleen mononuclear cell TGFβ production vs controls (TGF-β1 [3]; 150 ul orally for eight days) | Spleen mononuclear cell TGFβ production (TGF-β1 [3]; 150 ul orally for eight days) [pg/mL] | Stability in air [4] |
| --- | --- | --- | --- | --- | --- | --- | --- | --- | --- | --- | --- |
| prone to regurgitation | CCCCC/C=C\C/C=C\C/C=C\CCCCC(=O)OC(CO)CO [γ-linolenic acid monoglyceride] | 80 | 377 | 79 | 409 | 42 | 480 |  |  |  |  |
|  | CCCCC/C=C\C/C=C\C/C=C\CCCCC(=O)OC1COCOC1 [GLA 2-MG-F, 5-(γ-linolenoyloxy)-1,3-dioxan] |  |  |  |  |  |  | 90.9 ± 5.2 | P < 0.0001 ↑ 103% | 158.6 ± 7.5 | stable in air at room temperature for short periods (days) |
